{"source": "ChEMBL document CHEMBL6121047", "about": "“Design, Synthesis, and Evaluation of Selective PDE4 Inhibitors for the Therapy of Pulmonary Injury” (J Med Chem, 2025)", "key": {"HepG2": {"tested_on": "HepG2", "test": "Cytotoxicity against human HepG2 cells assessed as reduction in cell viability incubated for 24 hrs by CCK-8 assay", "assay_type": "toxicity, cell-based", "conditions": "hepg2, 24 h"}, "[1]": {"target": "3',5'-cyclic-AMP phosphodiesterase 4A (Homo sapiens, UniProt P27815)", "sequence (P27815 whole entry)": "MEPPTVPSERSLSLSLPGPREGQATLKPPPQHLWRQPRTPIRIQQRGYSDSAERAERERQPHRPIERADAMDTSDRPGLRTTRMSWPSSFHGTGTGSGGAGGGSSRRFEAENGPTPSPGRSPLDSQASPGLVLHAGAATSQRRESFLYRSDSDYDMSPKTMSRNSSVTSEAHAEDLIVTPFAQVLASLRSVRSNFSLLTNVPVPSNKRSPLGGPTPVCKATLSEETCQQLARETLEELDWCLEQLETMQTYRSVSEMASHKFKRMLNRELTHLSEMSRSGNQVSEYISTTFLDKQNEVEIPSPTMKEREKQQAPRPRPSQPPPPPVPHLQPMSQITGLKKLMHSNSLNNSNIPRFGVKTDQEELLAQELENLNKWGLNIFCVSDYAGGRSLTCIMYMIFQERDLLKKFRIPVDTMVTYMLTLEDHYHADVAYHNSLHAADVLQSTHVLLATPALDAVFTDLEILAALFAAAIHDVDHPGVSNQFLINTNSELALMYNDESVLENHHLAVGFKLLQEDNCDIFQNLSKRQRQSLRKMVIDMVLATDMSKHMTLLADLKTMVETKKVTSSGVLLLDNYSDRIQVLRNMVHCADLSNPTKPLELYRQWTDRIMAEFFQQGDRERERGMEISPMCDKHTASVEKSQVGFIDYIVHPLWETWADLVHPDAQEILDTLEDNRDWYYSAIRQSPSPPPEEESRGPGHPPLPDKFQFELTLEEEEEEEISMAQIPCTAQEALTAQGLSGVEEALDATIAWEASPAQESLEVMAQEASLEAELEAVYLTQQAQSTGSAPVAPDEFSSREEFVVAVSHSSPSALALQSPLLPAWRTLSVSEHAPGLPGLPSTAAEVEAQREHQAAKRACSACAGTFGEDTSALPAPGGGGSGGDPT", "test": "Inhibition of PDE4A (unknown origin) using FAM-cAMP as substrate preincubated with compound for compound for 15 mins followed by substrate addition and measured after 30 mins by Envision multilabel reader analysis"}, "[2]": {"target": "3',5'-cyclic-AMP phosphodiesterase 4B (Homo sapiens, UniProt Q07343)", "sequence (Q07343 whole entry)": "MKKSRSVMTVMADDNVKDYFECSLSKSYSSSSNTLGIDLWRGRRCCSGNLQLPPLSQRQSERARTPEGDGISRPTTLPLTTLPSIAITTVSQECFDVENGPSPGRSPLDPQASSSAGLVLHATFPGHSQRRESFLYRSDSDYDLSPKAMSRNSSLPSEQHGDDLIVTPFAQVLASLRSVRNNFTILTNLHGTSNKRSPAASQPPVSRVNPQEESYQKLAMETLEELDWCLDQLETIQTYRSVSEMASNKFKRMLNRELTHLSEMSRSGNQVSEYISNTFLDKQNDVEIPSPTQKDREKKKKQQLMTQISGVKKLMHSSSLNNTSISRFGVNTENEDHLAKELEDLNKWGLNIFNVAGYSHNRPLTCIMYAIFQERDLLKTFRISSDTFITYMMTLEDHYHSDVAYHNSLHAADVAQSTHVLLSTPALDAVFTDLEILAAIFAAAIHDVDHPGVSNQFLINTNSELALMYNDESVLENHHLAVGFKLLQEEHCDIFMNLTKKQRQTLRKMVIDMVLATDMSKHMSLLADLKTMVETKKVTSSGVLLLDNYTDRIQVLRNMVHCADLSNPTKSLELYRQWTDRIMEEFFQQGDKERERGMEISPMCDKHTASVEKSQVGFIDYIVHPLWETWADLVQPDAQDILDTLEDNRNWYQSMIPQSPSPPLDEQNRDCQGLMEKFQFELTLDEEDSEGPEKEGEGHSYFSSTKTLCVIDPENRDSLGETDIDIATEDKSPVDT", "test": "Inhibition of PDE4B (unknown origin) using FAM-cAMP as substrate preincubated with compound for compound for 15 mins followed by substrate addition and measured after 30 mins by Envision multilabel reader analysis"}, "[3]": {"test": "Metabolic stability in monkey liver microsomes assessed as half life incubated for 4 hrs in presence of NADPH by LC-MS analysis", "assay_type": "ADME, Macaca mulatta, Microsome", "conditions": "rhesus monkey"}, "[4]": {"target": "Voltage-gated inwardly rectifying potassium channel KCNH2 (Homo sapiens, UniProt Q12809)", "sequence (Q12809 whole entry)": "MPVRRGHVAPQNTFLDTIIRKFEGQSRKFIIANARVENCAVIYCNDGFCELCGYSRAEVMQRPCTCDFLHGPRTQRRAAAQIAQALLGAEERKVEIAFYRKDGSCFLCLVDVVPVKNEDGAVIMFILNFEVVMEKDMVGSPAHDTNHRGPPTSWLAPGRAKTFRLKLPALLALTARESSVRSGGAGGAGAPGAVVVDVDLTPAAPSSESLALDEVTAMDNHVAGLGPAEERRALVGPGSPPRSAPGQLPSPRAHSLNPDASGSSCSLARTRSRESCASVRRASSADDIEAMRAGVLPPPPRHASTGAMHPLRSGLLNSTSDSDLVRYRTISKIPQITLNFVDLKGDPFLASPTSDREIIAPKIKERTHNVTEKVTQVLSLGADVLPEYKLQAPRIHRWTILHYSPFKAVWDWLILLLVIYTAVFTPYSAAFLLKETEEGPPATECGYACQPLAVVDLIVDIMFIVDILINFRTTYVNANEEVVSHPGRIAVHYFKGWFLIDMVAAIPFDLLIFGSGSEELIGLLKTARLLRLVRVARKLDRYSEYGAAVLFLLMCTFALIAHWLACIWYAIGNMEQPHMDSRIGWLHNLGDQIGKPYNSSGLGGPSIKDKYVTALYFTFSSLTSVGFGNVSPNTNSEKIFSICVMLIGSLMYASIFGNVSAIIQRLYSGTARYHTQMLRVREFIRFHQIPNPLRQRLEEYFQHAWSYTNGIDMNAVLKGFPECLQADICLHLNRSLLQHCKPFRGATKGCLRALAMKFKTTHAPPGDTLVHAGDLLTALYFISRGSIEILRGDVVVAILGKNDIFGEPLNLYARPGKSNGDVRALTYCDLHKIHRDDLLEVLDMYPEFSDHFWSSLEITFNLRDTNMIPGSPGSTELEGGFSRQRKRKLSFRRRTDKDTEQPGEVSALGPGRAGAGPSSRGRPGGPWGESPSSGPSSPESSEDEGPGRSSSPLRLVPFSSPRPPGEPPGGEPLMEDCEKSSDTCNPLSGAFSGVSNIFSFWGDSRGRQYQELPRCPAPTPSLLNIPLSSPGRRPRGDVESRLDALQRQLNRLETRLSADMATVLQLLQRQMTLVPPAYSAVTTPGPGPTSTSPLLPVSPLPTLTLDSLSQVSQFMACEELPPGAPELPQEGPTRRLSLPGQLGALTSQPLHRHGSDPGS", "test": "Inhibition of hERG expressed in HEK293T cells", "assay_type": "toxicity, cell-based"}, "[5]": {"test": "AUC (0 to t) in Sprague-Dawley rat at 5 mg/kg, iv measured upto 24 hrs by LC-MS/MS analysis", "assay_type": "ADME, organism-based", "conditions": "in vivo"}, "[6]": {"test": "Initial plasma concentration in Sprague-Dawley rat at 5 mg/kg, iv measured upto 24 hrs by LC-MS/MS analysis", "assay_type": "ADME, organism-based"}, "[7]": {"test": "Cmax in Sprague-Dawley rat at 10 mg/kg, po measured upto 24 hrs by LC-MS/MS analysis", "assay_type": "ADME, organism-based", "conditions": "in vivo"}, "[8]": {"test": "Tmax in Sprague-Dawley rat at 10 mg/kg, po measured upto 24 hrs by LC-MS/MS analysis", "assay_type": "ADME, organism-based", "conditions": "in vivo"}, "[9]": {"test": "Clearance in Sprague-Dawley rat at 5 mg/kg, iv measured upto 24 hrs by LC-MS/MS analysis", "assay_type": "ADME, organism-based", "conditions": "in vivo"}, "[10]": {"test": "Oral bioavailability in Sprague-Dawley rat at 10 mg/kg measured upto 24 hrs by LC-MS/MS analysis", "assay_type": "ADME, organism-based", "conditions": "in vivo"}, "RAW264.7 [11]": {"tested_on": "RAW264.7", "test": "Anti-inflammatory activity in LPS-induced mouse RAW264.7 cells assessed as inhibition of TNF-alpha secretion level at 10 uM preincubated with compound for 1 hr followed by LPS addition and measured after 24 hrs by ELISA", "assay_type": "functional, cell-based", "conditions": "time 25.0 hrs"}, "RAW264.7 [12]": {"tested_on": "RAW264.7", "test": "Anti-inflammatory activity in LPS-induced mouse RAW264.7 cells assessed as inhibition of IL-6 secretion level at 10 uM preincubated with compound for 1 hr followed by LPS addition and measured after 24 hrs by ELISA", "assay_type": "functional, cell-based", "conditions": "time 25.0 hrs"}, "RAW264.7 [13]": {"tested_on": "RAW264.7", "test": "Anti-inflammatory activity in LPS-induced mouse RAW264.7 cells assessed as inhibition of IL-1 beta secretion level at 10 uM preincubated with compound for 1 hr followed by LPS addition and measured after 24 hrs by ELISA", "assay_type": "functional, cell-based", "conditions": "time 25.0 hrs"}, "[14]": {"test": "Acute toxicity in Sprague-Dawley rat assessed as pathological changes in spleen at 1 g/Kg, po administered via gavage by H and E staining based analysis", "assay_type": "organism-based", "conditions": "in vivo, 1000 mg/kg"}, "[15]": {"test": "Acute toxicity in Sprague-Dawley rat assessed as effect on apparent lung coefficient change at 1 g/Kg, po administered via gavage", "assay_type": "organism-based", "conditions": "in vivo, 1000 mg/kg"}, "[16]": {"test": "Acute toxicity in Sprague-Dawley rat assessed as effect on apparent spleen coefficient change at 1 g/Kg, po administered via gavage", "assay_type": "organism-based", "conditions": "in vivo, 1000 mg/kg"}, "Mus musculus [17]": {"tested_on": "Mus musculus", "test": "Anti-inflammatory activity against LPS-induced acute lung injury male BALB/c mouse model assessed as reduction in IL-1beta level in BALF at 8 to 32 mg/kg administered once a day via gavage for 7 days followed by LPS stimulation and measured after 24 hrs", "assay_type": "functional, organism-based", "conditions": "dose 8-32 mg/kg, time 192.0 hrs"}, "Mus musculus [18]": {"tested_on": "Mus musculus", "test": "Anti-inflammatory activity against LPS-induced acute lung injury male BALB/c mouse model assessed as relaxation of alveolar in lung at 8 to 32 mg/kg administered once a day via gavage for 7 days followed by LPS stimulation and measured after 24 hrs by H and E staining based microscopic analysis", "assay_type": "functional, organism-based", "conditions": "dose 8-32 mg/kg, time 192.0 hrs"}, "Mus musculus [19]": {"tested_on": "Mus musculus", "test": "Anti-inflammatory activity against LPS-induced acute lung injury male BALB/c mouse model assessed as enlarged bronchiole tubes in lung at 8 to 32 mg/kg administered once a day via gavage for 7 days followed by LPS stimulation and measured after 24 hrs by H and E staining based microscopic analysis", "assay_type": "functional, organism-based", "conditions": "dose 8-32 mg/kg, time 192.0 hrs"}, "Mus musculus [20]": {"tested_on": "Mus musculus", "test": "Antifibrotic activity against LPS-induced acute lung injury male BALB/c mouse model assessed as decrease in collagen deposition at 8 to 32 mg/kg administered once a day via gavage for 7 days followed by LPS stimulation and measured after 24 hrs by masson staining based microscopic analysis", "assay_type": "functional, organism-based", "conditions": "dose 8-32 mg/kg, time 192.0 hrs"}, "Mus musculus [21]": {"tested_on": "Mus musculus", "test": "(§1) Anti-inflammatory activity against cigarette-smoke/LPS-induced COPD male C57BL/6 mouse model assessed as reduction in TNF-alpha level in BALF at 5 mg/kg pretreated with cigarette smoke exposure for 21 weeks with subsequent LPS induction twice on the first and 15th day followed by compound administration every day via gavage for 4 weeks", "assay_type": "functional, organism-based"}, "Mus musculus [22]": {"tested_on": "Mus musculus", "test": "as §1, with “IL-6” for “TNF-alpha”", "assay_type": "functional, organism-based"}, "Mus musculus [23]": {"tested_on": "Mus musculus", "test": "Antitussive activity in male BALB/c mouse model assessed as delay in cough incubation period at 32 mg/kg administered every day via gavage for 7 days at 1 hrs post last dose and measured within 3 min", "assay_type": "functional, organism-based", "conditions": "time 169.05 hrs"}, "Mus musculus [24]": {"tested_on": "Mus musculus", "test": "Antitussive activity in male BALB/c mouse model assessed as reduction in cough frequency at 32 mg/kg administered every day via gavage for 7 days at 1 hrs post last dose and measured within 3 min", "assay_type": "functional, organism-based", "conditions": "time 169.05 hrs"}, "RAW264.7 [25]": {"tested_on": "RAW264.7", "test": "Anti-inflammatory activity in LPS-induced mouse RAW264.7 cells assessed as decrease in p38 MAPK protein level by Western blotting analysis", "assay_type": "functional, cell-based"}, "RAW264.7 [26]": {"tested_on": "RAW264.7", "test": "Anti-inflammatory activity against cigarette-smoke/LPS-induced mouse RAW264.7 cells assessed as inhibition of phosphorylated p38 MAPK protein expression by Western blotting analysis", "assay_type": "functional, cell-based"}}, "note": "The source made the active and inactive calls. The rule behind the calls is not given here.", "data": [{"smiles": "O=C(Nc1nccs1)c1cccc2[nH]c(-c3ccc(OC(F)F)c(OCC4CC4)c3)nc12", "values": [{"measurement": "Activity", "setting": "HepG2", "result": "Non-toxic"}, {"measurement": "IC50", "setting": "[1]", "result": 89.7, "unit": "nM"}, {"measurement": "IC50", "setting": "[2]", "result": 48.8, "unit": "nM"}, {"measurement": "half-life", "setting": "[3]", "result": 0.737, "unit": "h"}, {"measurement": "IC50", "setting": "[4]", "result": "> 30000", "unit": "nM"}, {"measurement": "AUC(0-t) at 24 h", "setting": "[5]", "result": 23200, "unit": "ng·h/mL"}, {"measurement": "C0 at 24 h", "setting": "[6]", "result": 38100, "unit": "ng/mL"}, {"measurement": "Cmax", "setting": "[7]", "result": 219, "unit": "ng/mL"}, {"measurement": "Tmax", "setting": "[8]", "result": 3, "unit": "h"}, {"measurement": "clearance", "setting": "[9]", "result": 3.62, "unit": "mL/min/kg"}, {"measurement": "bioavailability", "setting": "[10]", "result": 4.59, "unit": "%"}, {"measurement": "Activity", "setting": "RAW264.7 [11]", "result": "Active"}, {"measurement": "Activity", "setting": "RAW264.7 [12]", "result": "Active"}, {"measurement": "Activity", "setting": "RAW264.7 [13]", "result": "Active"}, {"measurement": "Activity", "setting": "[14]", "result": "Non-toxic"}, {"measurement": "Activity", "setting": "[15]", "result": "Non-toxic"}, {"measurement": "Activity", "setting": "[16]", "result": "Non-toxic"}, {"measurement": "Activity", "setting": "Mus musculus [17]", "result": "Active"}, {"measurement": "Activity", "setting": "Mus musculus [18]", "result": "Active"}, {"measurement": "Activity", "setting": "Mus musculus [19]", "result": "Active"}, {"measurement": "Activity", "setting": "Mus musculus [20]", "result": "Active"}, {"measurement": "Activity", "setting": "Mus musculus [21]", "result": "Active"}, {"measurement": "Activity", "setting": "Mus musculus [22]", "result": "Active"}, {"measurement": "Activity", "setting": "Mus musculus [23]", "result": "Active"}, {"measurement": "Activity", "setting": "Mus musculus [24]", "result": "Active"}, {"measurement": "Activity", "setting": "RAW264.7 [25]", "result": "Active"}, {"measurement": "Activity", "setting": "RAW264.7 [26]", "result": "Active"}]}]}
